Data published in patent publication US9302999B2, “Substituted triazoles as herbicides” (E. I. DU PONT DE NEMOURS AND COMPANY, priority 2012, dated 2016).

Assays:
Format in all cases: in vivo
[1] = tested on: sandbur (southern sandbur, Cenchrus echinatus); experiment: Test E pre-/postemergence: sandbur; conditions: scale 0 to 100
Description: (§1) Seeds of plant species selected from corn (Zea mays), soybean (Glycine max), velvetleaf (Abutilon theophrasti), lambsquarters (Chenopodium album), poinsettia, wild (wild poinsettia, Euphorbia heterophylla), pigweed, palmer (palmer pigweed, Amaranthus palmeri), waterhemp (common waterhemp, Amaranthus rudis), smartweed (ladysthumb smartweed, Polygonum persicaria), surinam grass (Brachiaria decumbens), crabgrass, large (large crabgrass, Digitaria sanguinalis), crabgrass, Brazil (Brazilian crabgrass, Digitaria horizontalis), panicum, fall (fall panicum, Panicum dichotomiflorum), foxtail, giant (giant foxtail, Setaria faberii), foxtail, green (green foxtail, Setaria viridis), goosegrass (Eleusine indica), johnsongrass (Sorghum halepense), ragweed (common ragweed, Ambrosia elation), barnyardgrass (Echinochloa crus-galli), sandbur (southern sandbur, Cenchrus echinatus), arrowleaf sida (Sida rhombifolia), ryegrass, Italian (Italian ryegrass, Lolium multiflorum), dayflower, (VA) (Virginia dayflower, Commelina virginica), field bindweed (Convolvulus arvensis), cocklebur (common cocklebur, Xanthium strumarium), morningglory (Ipomoea coccinea), nightshade (eastern black nightshade, Solanum ptycanthum), kochia (Kochia scoparia), nutsedge, yellow (yellow nutsedge, Cyperus esculentus) and beggarticks (hairy beggarticks, Bidens pilosa) were planted into a silt loam soil and treated preemergence with test chemicals formulated in a non-phytotoxic solvent mixture which included a surfactant. At the same time, plants selected from these crop and weed species were planted in pots containing a growing medium comprising spaghnum peat moss, vermiculite, wetting agent and starter nutrients and treated with postemergence applications of some of the test chemicals formulated in the same manner. Plants ranged in height from 2 to 18 cm for postemergence treatments (1- to 4-leaf stage).
(§2) Treated plants and controls were maintained in a greenhouse for 14 to 21 days, after which time all species were compared to controls and visually evaluated. Plant response ratings, summarized in Table E, are based on a scale of 0 to 100 where 0 is no effect and 100 is complete control. A dash (-) response means no test result.

[2] = tested on: foxtail, green (green foxtail, Setaria viridis); experiment: Test E pre-/postemergence: foxtail, green; conditions: Preemergence, scale 0 to 100
Description: as §1, §2

corn (Zea mays) = experiment: Test E pre-/postemergence: corn; conditions: scale 0 to 100
Description: as §1, §2

[3] = tested on: field bindweed (Convolvulus arvensis); experiment: Test E pre-/postemergence: field bindweed; conditions: scale 0 to 100
Description: as §1, §2

[4] = tested on: pigweed, palmer (palmer pigweed, Amaranthus palmeri); experiment: Test E pre-/postemergence: pigweed, palmer; conditions: scale 0 to 100
Description: as §1, §2

[5] = tested on: waterhemp (common waterhemp, Amaranthus rudis); experiment: Test E pre-/postemergence: waterhemp; conditions: scale 0 to 100
Description: as §1, §2

## COc1nn(-c2ccc(C(F)(F)F)cc2)nc1Cc1ccnc(C(F)(F)F)c1 [Compound 15, 4-[[5-methoxy-2-[4-(trifluoromethyl)phenyl]-2H-1,2,3-triazol-4-yl]methyl]-2-(trifluoromethyl)pyridine]
[1]; Preemergence, 16 g ai/ha
  Plant response rating: Sandbur: 5
[1]; Preemergence, 31 g ai/ha
  Plant response rating: Sandbur: 25
[1]; Preemergence, 62 g ai/ha
  Plant response rating: Sandbur: 50
[1]; Preemergence, 125 g ai/ha
  Plant response rating: Sandbur: 90
[1]; Preemergence, 250 g ai/ha
  Plant response rating: Sandbur: 100
[2]; 16 g ai/ha
  Plant response rating: Foxtail, Green: 20
[2]; 62 g ai/ha
  Plant response rating: Foxtail, Green: 90
[2]; 125 g ai/ha
  Plant response rating: Foxtail, Green: 100
[2]; 250 g ai/ha
  Plant response rating: Foxtail, Green: 100
Corn (Zea mays); Preemergence, 16 g ai/ha
  Plant response rating: Corn: 0
Corn (Zea mays); Preemergence, 31 g ai/ha
  Plant response rating: Corn: 0
Corn (Zea mays); Preemergence, 62 g ai/ha
  Plant response rating: Corn: 0
Corn (Zea mays); Preemergence, 125 g ai/ha
  Plant response rating: Corn: 5
Corn (Zea mays); Preemergence, 250 g ai/ha
  Plant response rating: Corn: 10
[3]; Preemergence, 16 g ai/ha
  Plant response rating: Field Bindweed: 5
[3]; Preemergence, 31 g ai/ha
  Plant response rating: Field Bindweed: 5
[3]; Preemergence, 62 g ai/ha
  Plant response rating: Field Bindweed: 40
[3]; Preemergence, 125 g ai/ha
  Plant response rating: Field Bindweed: 60
[3]; Preemergence, 250 g ai/ha
  Plant response rating: Field Bindweed: 95
[4]; Preemergence, 16 g ai/ha
  Plant response rating: Pigweed, Palmer: 100
[4]; Preemergence, 31 g ai/ha
  Plant response rating: Pigweed, Palmer: 100
[4]; Preemergence, 62 g ai/ha
  Plant response rating: Pigweed, Palmer: 100
[4]; Preemergence, 125 g ai/ha
  Plant response rating: Pigweed, Palmer: 100
[4]; Preemergence, 250 g ai/ha
  Plant response rating: Pigweed, Palmer: 100
[5]; Preemergence, 16 g ai/ha
  Plant response rating: Waterhemp: 98
[5]; Preemergence, 31 g ai/ha
  Plant response rating: Waterhemp: 100
[5]; Preemergence, 62 g ai/ha
  Plant response rating: Waterhemp: 100
[5]; Preemergence, 125 g ai/ha
  Plant response rating: Waterhemp: 100
[5]; Preemergence, 250 g ai/ha
  Plant response rating: Waterhemp: 100

## Cc1nn(-c2ccc(C(F)(F)F)cc2)nc1Oc1ccnc(C(F)(F)F)c1 [Compound 120]
[1]; Postemergence, 8 g ai/ha
  Plant response rating: Sandbur: 10
[1]; Postemergence, 16 g ai/ha
  Plant response rating: Sandbur: 10
[1]; Postemergence, 31 g ai/ha
  Plant response rating: Sandbur: 20
[1]; Postemergence, 62 g ai/ha
  Plant response rating: Sandbur: 30
[1]; Postemergence, 125 g ai/ha
  Plant response rating: Sandbur: 35
[1]; Preemergence, 16 g ai/ha
  Plant response rating: Sandbur: 5
[1]; Preemergence, 31 g ai/ha
  Plant response rating: Sandbur: 5
[1]; Preemergence, 62 g ai/ha
  Plant response rating: Sandbur: 5
[1]; Preemergence, 125 g ai/ha
  Plant response rating: Sandbur: 20
[1]; Preemergence, 250 g ai/ha
  Plant response rating: Sandbur: 75
[2]; 16 g ai/ha
  Plant response rating: Foxtail, Green: 15
[2]; 31 g ai/ha
  Plant response rating: Foxtail, Green: 85
[2]; 62 g ai/ha
  Plant response rating: Foxtail, Green: 100
[2]; 125 g ai/ha
  Plant response rating: Foxtail, Green: 100
[2]; 250 g ai/ha
  Plant response rating: Foxtail, Green: 100
Corn (Zea mays); Postemergence, 8 g ai/ha
  Plant response rating: Corn: 10
Corn (Zea mays); Postemergence, 16 g ai/ha
  Plant response rating: Corn: 10
Corn (Zea mays); Postemergence, 31 g ai/ha
  Plant response rating: Corn: 10
Corn (Zea mays); Postemergence, 62 g ai/ha
  Plant response rating: Corn: 20
Corn (Zea mays); Postemergence, 125 g ai/ha
  Plant response rating: Corn: 20
Corn (Zea mays); Preemergence, 16 g ai/ha
  Plant response rating: Corn: 0
Corn (Zea mays); Preemergence, 62 g ai/ha
  Plant response rating: Corn: 5
Corn (Zea mays); Preemergence, 125 g ai/ha
  Plant response rating: Corn: 10
Corn (Zea mays); Preemergence, 250 g ai/ha
  Plant response rating: Corn: 10
[3]; Postemergence, 16 g ai/ha
  Plant response rating: Field Bindweed: 20
[3]; Postemergence, 31 g ai/ha
  Plant response rating: Field Bindweed: 30
[3]; Postemergence, 62 g ai/ha
  Plant response rating: Field Bindweed: 35
[3]; Postemergence, 125 g ai/ha
  Plant response rating: Field Bindweed: 35
[3]; Preemergence, 16 g ai/ha
  Plant response rating: Field Bindweed: 0
[3]; Preemergence, 31 g ai/ha
  Plant response rating: Field Bindweed: 10
[3]; Preemergence, 62 g ai/ha
  Plant response rating: Field Bindweed: 20
[3]; Preemergence, 125 g ai/ha
  Plant response rating: Field Bindweed: 40
[3]; Preemergence, 250 g ai/ha
  Plant response rating: Field Bindweed: 98
[4]; Postemergence, 8 g ai/ha
  Plant response rating: Pigweed, Palmer: 90
[4]; Postemergence, 16 g ai/ha
  Plant response rating: Pigweed, Palmer: 90
[4]; Postemergence, 31 g ai/ha
  Plant response rating: Pigweed, Palmer: 90
[4]; Postemergence, 62 g ai/ha
  Plant response rating: Pigweed, Palmer: 95
[4]; Postemergence, 125 g ai/ha
  Plant response rating: Pigweed, Palmer: 100
[4]; Preemergence, 16 g ai/ha
  Plant response rating: Pigweed, Palmer: 65
[4]; Preemergence, 31 g ai/ha
  Plant response rating: Pigweed, Palmer: 100
[4]; Preemergence, 62 g ai/ha
  Plant response rating: Pigweed, Palmer: 100
[4]; Preemergence, 125 g ai/ha
  Plant response rating: Pigweed, Palmer: 100
[4]; Preemergence, 250 g ai/ha
  Plant response rating: Pigweed, Palmer: 100
[5]; Postemergence, 8 g ai/ha
  Plant response rating: Waterhemp: 30
[5]; Postemergence, 16 g ai/ha
  Plant response rating: Waterhemp: 50
[5]; Postemergence, 31 g ai/ha
  Plant response rating: Waterhemp: 65
[5]; Postemergence, 62 g ai/ha
  Plant response rating: Waterhemp: 75
[5]; Postemergence, 125 g ai/ha
  Plant response rating: Waterhemp: 75
[5]; Preemergence, 16 g ai/ha
  Plant response rating: Waterhemp: 95
[5]; Preemergence, 31 g ai/ha
  Plant response rating: Waterhemp: 98
[5]; Preemergence, 62 g ai/ha
  Plant response rating: Waterhemp: 100
[5]; Preemergence, 125 g ai/ha
  Plant response rating: Waterhemp: 100
[5]; Preemergence, 250 g ai/ha
  Plant response rating: Waterhemp: 100
